Among the data in article PMC3528830 (ACS chemical biology, 2012) are IC50 and Kd values, retold here.

In general, IC50 refers to the concentration that gives 50% inhibition. The Kd is a measure of binding affinity in units of concentration.

One assay deals with r(CUG)10-MBNL1 complex. Briefly: qTR-FRET assay, disruption of pre-formed r. In kind it is biochemical. The settings on record: read-out: IC50 for r(CUG)-MBNL1, pre-formed r(CUG)10-MBNL1 complex, displacement.
The next assay addresses tRNA. The assay is described as follows: RNA binding assay. Also on record: species or system yeast. Particulars: read-out: tRNA Kd.
The next assay addresses r(CUG)12×2. Particulars: read-out: r(CUG)12×2 Kd; data taken from a previous report; cited from earlier work.

Regarding `NC1C(O)[C@H](OC2[C@H](N)CC(N)[C@@H](O[C@H]3OC(CNC(=O)CCCc4cn(CCCNC(=S)Nc5ccc(-c6c7ccc(=O)cc-7oc7cc(O)ccc67)c(C(=O)O)c5)nn4)[C@@H](O)[C@H](O)C3O)[C@@H]2O)OC(CO)[C@@H]1O` (stereo partly shown) [FITC-K], in the assay with r(CUG)10-MBNL1 complex, the IC50 is greater than 250 µM. The Kd at tRNA was greater than 10 µM; at r(CUG)12×2 it was 1 ± 0.25 µM.

B1: MBNL1: muscleblind-like 1 protein, RNA splicing regulator (protein, UniProt Q9NR56 1-388, looked up)
Muscleblind-like protein 1: MAVSVTPIRDTKWLTLEVCREFQRGTCSRPDTECKFAHPSKSCQVENGRVIACFDSLKGRCSRENCKYLHPPPHLKTQLEINGRNNLIQQKNMAMLAQQMQLANAMMPGAPLQPVPMFSVAPSLATNASAAAFNPYLGPVSPSLVPAEILPTAPMLVTGNPGVPVPAAAAAAAQKLMRTDRLEVCREYQRGNCNRGENDCRFAHPADSTMIDTNDNTVTVCMDYIKGRCSREKCKYFHPPAHLQAKIKAAQYQVNQAAAAQAAATAAAMTQSAVKSLKRPLEATFDLGIPQAVLPPLPKRPALEKTNGATAVFNTGIFQYQQALANMQLQQHTAFLPPVPMVHGATPATVSAATTSATSVPFAATATANQIPIISAEHLTSHKYVTQM
For B1, on r(CUG)12×2, the Kd was 0.25 µM.
